Values of other authors in patent US20220370511A1, “METHODS AND COMPOSITIONS FOR ENHANCING OVERALL HEALTH AND LONGEVITY IN MAMMALS” (MYOS CORP., priority 2019, published 2022).

Key:
[1] = chronic supplementation, healthy middle-aged and older adults
[2] = tested on: NAD+ metabolism; conditions: chronic supplementation, healthy middle-aged and older adults
[3] = dose of 300 mg/kg/day

NC(=O)c1ccc[n+]([C@@H]2O[C@H](CO)[C@@H](O)[C@H]2O)c1 [nicotinamide riboside]
tolerability [1]: well tolerated
stimulation of NAD+ metabolism [2]: effectively stimulated
adverse effects related to nicotinamide riboside [3]: absent
